This is an account of results in patent US20050124606A1, “Novel benzothiazine and benzothiadiazine derivatives method for preparing same and pharmaceutical compositions containing same” (priority 2001, published 2005).

One data set has as its system AMPA receptors. As to the kind of experiment: Excitatory fluxes induced by AMPA in Xenopus oocytes injected with rat cerebral cortex mRNA (2-electrode voltage-clamp). The data set is classed as cell-based. The following applies: rat cortex poly-(A+) mRNA, AMPA 10 μM. As to the method:
Study of the Excitatory Fluxes Induced by AMPA in Xenopus oocytes
mRNAs are prepared from cerebral cortex of male Wistar rat by the guanidinium thiocyanate/phenyl/chloroform method. The poly-(A^+) mRNAs are isolated by chromatography on oligo-dT cellulose and injected in an amount of 50 ng per oocyte. The oocytes are left to incubate for 2 to 3 days at 18° C. to allow expression of the receptors and are then stored at from 8 to 10° C.
Electrophysiological recording is carried out in a Plexiglass® chamber at from 20 to 24° C. in OR2 medium (J. Exp. Zool., 1973, 184, 321-334) by the 2-electrode “voltage-clamp” method, a 3rd electrode being placed in the bath to serve as reference.
All the compounds are administered via the incubation medium and the electric current is measured at the end of the period of administration. AMPA is used at a concentration of 10 μM. For each compound studied, the concentration that doubles (EC2X) or quintuples (EC5X) the intensity of the current induced by AMPA alone (5 to 50 nA) is determined.
For `O=S1(=O)NC2CCCN2c2ccc(Oc3ccccc3)cc21` (single isomer, unassigned) [Example 3, 7-Phenoxy-2,3,3a,4-tetrahydro-1H-pyrrolo[2,1-c][1,2,4]-benzothiadiazine 5,5-dioxide, α Isomer], the “EC2X (concentration that doubles the intensity of the current induced by AMPA alone)” value stood at 0.8 µM and the “EC5X (concentration that quintuples the intensity of the current induced by AMPA alone)” value was determined as 3.6 µM.
With `CCN1CNS(=O)(=O)c2cc(Oc3ccccc3)ccc21` [Example 29, 4-Ethyl-7-phenoxy-3,4-dihydro-2H-1,2,4-benzothiadiazine 1,1-dioxide], the “EC2X (concentration that doubles the intensity of the current induced by AMPA alone)” value stood at 1.4 µM and the “EC5X (concentration that quintuples the intensity of the current induced by AMPA alone)” value is 4.5 µM.

Tested on in a further data set: not given
Assay: not given
Details: not given
For the compound `N#Cc1ccc(Oc2ccc3c(c2)S(=O)(=O)NC2CCCN32)cc1` (centres unmarked) [Example 5, 4-[(5,5-Dioxido-2,3,3a,4-tetrahydro-1H-pyrrolo[2,1-c][1,2,4]benzothiadiazin-7-yl)oxy]benzonitrile], the melting point (in general, the temperature of the solid-liquid transition) lay in the range of 242 to 245 °C.
As to `N#Cc1cccc(Oc2ccc3c(c2)S(=O)(=O)NC2CCCN32)c1` (centres unmarked) [Example 6, 3-[(5,5-Dioxido-2,3,3a,4-tetrahydro-1H-pyrrolo [2,1-c][1,2,4]benzothiadiazin-7-yl)oxy]benzonitrile], the melting point was 227 to 230 °C.
As for `Cc1ccc(Oc2ccc3c(c2)S(=O)(=O)NC2CCCN32)cc1` (centres unmarked) [Example 7, 7-(4-Methylphenoxy)-2,3,3a,4-tetrahydro-1H-pyrrolo[2,1-c][1,2,4]-benzothiadiazine 5,5-dioxide], the melting point was 222 to 226 °C.
As for `Cc1cccc(Oc2ccc3c(c2)S(=O)(=O)NC2CCCN32)c1` (centres unmarked) [Example 8, 7-(3-Methylphenoxy)-2,3,3a,4-tetrahydro-1H-pyrrolo[2,1-c][1,2,4]-benzothiadiazine 5,5-dioxide], the melting point lay in the range of 190 to 195 °C.
For `COc1ccc(Oc2ccc3c(c2)S(=O)(=O)NC2CCCN32)cc1` (centres unmarked) [Example 9, 7-(4-Methoxyphenoxy)-2,3,3a,4-tetrahydro-1H-pyrrolo[2,1-c][1,2,4]-benzothiadiazine 5,5-dioxide], the melting point is 188 to 191 °C.
The compound `COc1ccccc1Oc1ccc2c(c1)S(=O)(=O)NC1CCCN21` (centres unmarked) [Example 13, 7-(2-Methoxyphenoxy)-2,3,3a,4-tetrahydro-1H-pyrrolo[2,1-c][1,2,4]-benzothiadiazine 5,5-dioxide] yielded a melting point of 175 to 176 °C.
For `O=[N+]([O-])c1cccc(Oc2ccc3c(c2)S(=O)(=O)NC2CCCN32)c1` (centres unmarked) [Example 15, 7-(3-Nitrophenoxy)-2,3,3a,4-tetrahydro-1H-pyrrolo[2,1-c][1,2,4]-benzothiadiazine 5,5-dioxide], the melting point was in the range of 201 to 204 °C.
`O=S1(=O)NC2CCCN2c2ccc(Oc3cc(C(F)(F)F)cc(C(F)(F)F)c3)cc21` (centres unmarked) [Example 16, 7-[3,5-Di(trifluoromethyl)phenoxy]-2,3,3a,4-tetrahydro-1H-pyrrolo[2,1-c][1,2,4]benzothiadiazine 5,5-dioxide] displayed a melting point of 201 to 203 °C.
For `O=S1(=O)NC2CCCN2c2ccc(Oc3cccc(Cl)c3)cc21` (centres unmarked) [Example 17, 7-(3-Chlorophenoxy)-2,3,3a,4-tetrahydro-1H-pyrrolo[2,1-c][1,2,4]-benzothiadiazine 5,5-dioxide], the melting point was 194 to 198 °C.
Still for that read-out and setting: for `CCOc1cccc(Oc2ccc3c(c2)S(=O)(=O)NC2CCCN32)c1` (centres unmarked) [Example 18, 7-(3-Ethoxyphenoxy)-2,3,3a,4-tetrahydro-1H-pyrrolo[2,1-c][1,2,4]-benzothiadiazine 5,5-dioxide] the value was 150 °C.
Compound `O=S1(=O)NC2CCCN2c2ccc(Oc3cccc(OC(F)(F)F)c3)cc21` (centres unmarked) [Example 19, 7-(3-Trifluoromethoxyphenoxy)-2,3,3a,4-tetrahydro-1H-pyrrolo-[2,1-c][1,2,4]benzothiadiazine 5,5-dioxide] registered a melting point of 175 °C.
In turn, `O=S1(=O)NC2CCCN2c2ccc(Oc3cccc4ccccc34)cc21` (centres unmarked) [Example 20, 7-(1-Naphthyloxy)-2,3,3a,4-tetrahydro-1H-pyrrolo[2,1-c][1,2,4]-benzothiadiazine 5,5-dioxide] showed a melting point of 227 to 229 °C.
`O=S1(=O)NC2CCCN2c2ccc(Oc3ccc4ccccc4c3)cc21` (centres unmarked) [Example 21, 7-(2-Naphthyloxy)-2,3,3a,4-tetrahydro-1H-pyrrolo[2,1-c][1,2,4]-benzothiadiazine 5,5-dioxide] gave a melting point of 234 to 236 °C.
`O=S1(=O)NC2CCCN2c2ccc(Oc3cccc(OCc4ccccc4)c3)cc21` (centres unmarked) [Example 22, 7-(3-Benzyloxyphenoxy)-2,3,3a,4-tetrahydro-1H-pyrrolo-[2,1-c][1,2,4]benzothiadiazine 5,5-dioxide] came in with a melting point of 179 to 182 °C.
Compound `COC(=O)c1cccc(Oc2ccc3c(c2)S(=O)(=O)NC2CCCN32)c1` (centres unmarked) [Example 26, Methyl 3-[(5,5-dioxido-2,3,3a,4-tetrahydro-1H-pyrrolo[2,1-c][1,2,4]-benzothiadiazin-7-yl)oxy]benzoate] yielded a melting point of 223 to 227 °C.
Consider `CCN1CNS(=O)(=O)c2cc(Oc3ccccc3)ccc21` [Example 29, 4-Ethyl-7-phenoxy-3,4-dihydro-2H-1,2,4-benzothiadiazine 1,1-dioxide], for which the melting point was in the range of 179 to 181 °C.
Consider `CCCN1CNS(=O)(=O)c2cc(Oc3ccccc3)ccc21` [Example 30, 4-Propyl-7-phenoxy-3,4-dihydro-2H-1,2,4-benzothiadiazine 1,1-dioxide], for which the melting point is 143 to 145 °C.
In turn, `CCN1CNS(=O)(=O)c2cc(Oc3cccc(C#N)c3)ccc21` [Example 31, 3-[(4-Ethyl-1,1-dioxido-3,4-dihydro-2H-1,2,4-benzothiadiazin-7-yl)oxy]benzonitrile] came in with a melting point of 143 to 146 °C.
For `CCN1CNS(=O)(=O)c2cc(Oc3cccc(OC)c3)ccc21` [Example 32, 4-Ethyl-7-(3-methoxyphenoxy)-3,4-dihydro-2H-1,2,4-benzothiadiazine 1,1-dioxide], the melting point was in the range of 91 to 93 °C.
Still for that read-out and setting: for `CSc1cccc(Oc2ccc3c(c2)S(=O)(=O)NC2CCCN32)c1` (centres unmarked) [Example 34, 7-(3-Methylsulphanylphenoxy)-2,3,3a,4-tetrahydro-1H-pyrrolo-[2,1-c][1,2,4]benzothiadiazine 5,5-dioxide] the value was 160 °C; for `CCc1cccc(Oc2ccc3c(c2)S(=O)(=O)NC2CCCN32)c1` (centres unmarked) [Example 35, 7-(3-Ethylphenoxy)-2,3,3a,4-tetrahydro-1H-pyrrolo [2,1-c][1,2,4]-benzothiadiazine 5,5-dioxide], 143 to 144 °C; for `CC(C)c1cccc(Oc2ccc3c(c2)S(=O)(=O)NC2CCCN32)c1` (centres unmarked) [Example 36, 7-(3-Isopropylphenoxy)-2,3,3a,4-tetrahydro-1H-pyrrolo[2,1-c][1,2,4]-benzothiadiazine 5,5-dioxide], 171 to 172 °C.
As to `O=S1(=O)NC2CCCN2c2ccc(Oc3cccc(F)c3)cc21` (centres unmarked) [Example 37, 7-(3-Fluorophenoxy)-2,3,3a,4-tetrahydro-1H-pyrrolo [2,1-c][1,2,4]-benzothiadiazine 5,5-dioxide], the melting point was found to be 201 °C.
The compound `O=S1(=O)NC2CCCN2c2ccc(Oc3cccc(Br)c3)cc21` (centres unmarked) [Example 38, 7-(3-Bromophenoxy)-2,3,3a,4-tetrahydro-1H-pyrrolo[2,1-c][1,2,4]-benzothiadiazine 5,5-dioxide] had a melting point of 193 to 195 °C.
`CCN1CNS(=O)(=O)c2cc(Oc3cccc(C)c3)ccc21` [Example 57, 4-Ethyl-7-(3-methylphenoxy)-3,4-dihydro-2H-[1,2,4]benzothiadiazine 1,1-dioxide] came in with a melting point of 72 to 75 °C.
As for `CCN1CNS(=O)(=O)c2cc(Oc3cccc(NS(C)(=O)=O)c3)ccc21` [Example 58, N-{3-[(4-Ethyl-1,1-dioxido-3,4-dihydro-2H-1,2,4-benzothiadiazin-7-yl)oxy]phenyl}methanesulphonamide], the melting point was in the range of 165 to 168 °C.
As for `CCN1CNS(=O)(=O)c2cc(Oc3cccc(C(C)=O)c3)ccc21` [Example 59, 1-{3-[(4-Ethyl-1,1-dioxido-3,4-dihydro-2H-1,2,4-benzothiadiazin-7-yl)oxy]phenyl}ethanone], the melting point is 164 to 166 °C.
Still for that read-out and setting: next, `CCN1CNS(=O)(=O)c2cc(Oc3ccc(C)c(C)c3)ccc21` [Example 61, 7-(3,4-Dimethylphenoxy)-4-ethyl-3,4-dihydro-2H-1,2,4-benzothiadiazine 1,1-dioxide]: 109 to 111 °C.
